Reference: patent US4008233A (priority 1972, dated 1977)
Like-named read-outs stand apart in the source and are kept apart here.

Key:
[1] = design: species or system male mice; settings: mouse, in vivo
[2] = design: species or system male white mice; settings: mouse, in vivo
[3] = in vivo; settings: mouse
[4] = design: species or system male rats (SIV; printed "rate"); settings: rat, in vivo
[5] = design: species or system male mice (NMRI); settings: in vivo
[6] = design: species or system mice and rats; settings: in vivo

SMILES: CCOC(=O)[C@]1(c2ccccc2)C=C[C@@H](N2CCN(c3ccccc3OC)CC2)CC1 (relative stereo) [4r-[4'-(2-Methoxy-phenyl)piperazino-1']-1c-phenyl-1t-ethoxycarbonyl-cyclohexene-(2)]
- Analgesia ED 50 Phenyl-p-Quinone Writhing Test ([1]; po): > 150.00 mg/kg
- Reduction of Spontaneous Motility by % Photocage ([2]; 50 mg/kg): 17%
- LD50 at 48 h ([3]; po): > 1600 mg/kg

SMILES: CCOC(=O)[C@]1(c2ccccc2)C=C[C@@H](N2CCCCC2)CC1 (relative stereo) [4r-(Piperidino-1')-1c-phenyl-1t-ethoxycarbonyl-cyclohexene-(2)]
- Decrease in Body Temperature in ° C ([4]; sc, 50 mg/kg): -0.1 °C
- Aggressive Mouse ED 50 ([5]; sc): no effect
- Analgesia ED 50 Phenyl-p-Quinone Writhing Test ([1]; sc): > 20.0 mg/kg
- Reduction of Spontaneous Motility by % Photocage ([2]; sc, 40 mg/kg): 11%
- LD50 at 48 h ([3]; sc): 390 mg/kg

SMILES: CCOC(=O)[C@]1(c2ccccc2)C=C[C@@H](N2CCN(c3ccccc3)CC2)CC1 (relative stereo) [4r-(4'-Phenyl-piperazino-1')-1c-phenyl-1t-cyclohexene-(2)]
- Decrease in Body Temperature in ° C ([4]; 200 mg/kg): -1.7 °C
- Analgesia ED 50 Phenyl-p-Quinone Writhing Test ([1]; po): > 50.0 mg/kg
- Reduction of Spontaneous Motility by % Photocage ([2]; 10 mg/kg): 34%
- Reduction of Spontaneous Motility by % Photocage ([2]; sc, 5 mg/kg): no effect
- LD50 at 48 h ([3]; po): ~1600 mg/kg

SMILES: CCOC(=O)[C@]1(c2ccccc2)C=C[C@H](N2CCCCC2)CC1 (relative stereo) [Example 2, 4r-(Piperidino-1')-1t-phenyl-1c-ethoxycarbonyl-cyclohexene-(2)]
- Decrease in Body Temperature in ° C ([4]; sc, 25 mg/kg): -1.6 °C
- Aggressive Mouse ED 50 ([5]; sc, 30 min): 8.0 mg/kg
- Analgesia ED 50 Phenyl-p-Quinone Writhing Test ([1]; sc): 5.3 mg/kg
- Reduction of Spontaneous Motility by % Photocage ([2]; sc, 10 mg/kg): 93%
- LD50 at 48 h ([3]; sc): 150 mg/kg

SMILES: CCOC(=O)[C@]1(c2ccccc2)C=C[C@@H](N(C)C)CC1 (relative stereo) [4r-Dimethyl-amino-1c-phenyl-1t-ethoxycarbonyl-cyclohexene-(2)]
- Decrease in Body Temperature in ° C ([4]; sc): no effect
- Aggressive Mouse ED 50 ([5]; sc): no effect
- Analgesia ED 50 Phenyl-p-Quinone Writhing Test ([1]; po): 118.0 mg/kg
- Analgesia ED 50 Phenyl-p-Quinone Writhing Test ([1]; sc): 14.6 mg/kg
- Reduction of Spontaneous Motility by % Photocage ([2]; sc, 5 mg/kg): 0%
- Reduction of Spontaneous Motility by % Photocage ([2]; sc, 20 mg/kg): 25%
- LD50 at 48 h ([3]; po): 490 mg/kg
- LD50 at 48 h ([3]; sc): 136 mg/kg

SMILES: CCOC(=O)C1(c2ccccc2)CCN(C)CC1 [Dolantin, Ethyl 1-methyl 4-phenyl-piperidin-4-carboxylate]
- Decrease in Body Temperature in ° C [4]: no effect
- Decrease in Body Temperature in ° C ([4]; sc): no effect
- Aggressive Mouse ED 50 [5]: no effect
- Aggressive Mouse ED 50 ([5]; sc, 30 min): > 15 mg/kg
- Analgesia ED 50 Phenyl-p-Quinone Writhing Test ([1]; po): 28.5 mg/kg
- Analgesia ED 50 Phenyl-p-Quinone Writhing Test ([1]; sc): 6.3 mg/kg
- Reduction of Spontaneous Motility by % Photocage [2]: no effect
- Reduction of Spontaneous Motility by % Photocage ([2]; sc, 15 mg/kg): 30%
- LD50 at 48 h ([3]; po): 252 mg/kg
- LD50 at 48 h ([3]; sc): 154 mg/kg
- Neuroleptic activity (in words) [6]: no significant neuroleptic activity

SMILES: CCOC(=O)[C@]1(c2ccccc2)C=C[C@H](N2CCN(c3ccccc3)CC2)CC1 (relative stereo) [Example 5, 4r-(4'-Phenylpiperazino-1')-1t-phenyl-1c-ethoxycarbonylcyclohexene-(2)]
- Decrease in Body Temperature in ° C ([4]; 100 mg/kg): -2.6 °C
- Aggressive Mouse ED 50 ([5]; po, 30 min): 25 mg/kg
- Analgesia ED 50 Phenyl-p-Quinone Writhing Test ([1]; po): 25.0 mg/kg
- Reduction of Spontaneous Motility by % Photocage ([2]; 10 mg/kg): 59%
- Reduction of Spontaneous Motility by % Photocage ([2]; 50 mg/kg): 94%
- Reduction of Spontaneous Motility by % Photocage ([2]; sc, 5 mg/kg): 71%
- LD50 at 48 h ([3]; po): 1600 mg/kg

SMILES: CCOC(=O)[C@]1(c2ccccc2)C=C[C@@H](N2CCC(c3ccccc3)CC2)CC1 (relative stereo) [4r-(4'-Phenyl-piperidino-1')-1c-phenyl-1t-ethoxycarbonyl-cyclohexene-(2)]
- Decrease in Body Temperature in ° C [4]: no effect
- Aggressive Mouse ED 50 [5]: no effect
- Analgesia ED 50 Phenyl-p-Quinone Writhing Test ([1]; po): ca. 75.0 mg/kg
- Reduction of Spontaneous Motility by % Photocage ([2]; 100 mg/kg): 79%
- LD50 at 48 h ([3]; po): 850 mg/kg

SMILES: CCOC(=O)[C@]1(c2ccccc2)C=C[C@H](N2CCN(c3ccccc3OC)CC2)CC1 (relative stereo) [Example 4, 4r-[4'-(2-Methoxyphenyl)piperazino-1']-1t-phenyl-1c-ethoxycarbonyl-cyclohexene-(2)]
- Analgesia ED 50 Phenyl-p-Quinone Writhing Test ([1]; po): 50.0 mg/kg
- Reduction of Spontaneous Motility by % Photocage ([2]; 50 mg/kg): 86%
- LD50 at 48 h ([3]; po): ~2000 mg/kg

SMILES: CCOC(=O)[C@]1(c2ccccc2)C=C[C@H](N2CCC(c3ccccc3)CC2)CC1 (relative stereo) [Example 3, 4r-(4'-Phenylpiperidino-1')-1t-phenyl-1c-ethoxycarbonylcyclohexene-(2)]
- Decrease in Body Temperature in ° C ([4]; 50 mg/kg): -0.5 °C
- Aggressive Mouse ED 50 ([5]; po, 30 min): 30 mg/kg
- Analgesia ED 50 Phenyl-p-Quinone Writhing Test ([1]; po): 10.0 mg/kg
- Reduction of Spontaneous Motility by % Photocage ([2]; 25 mg/kg): 91%
- LD50 at 48 h ([3]; po): 800 mg/kg

SMILES: CCOC(=O)[C@]1(c2ccccc2)C=C[C@H](N(C)C)CC1 (relative stereo) [Example 1, 4r-Dimethylamino-1t-phenyl-1c-ethoxycarbonyl-cyclohexene-(2)]
- Decrease in Body Temperature in ° C ([4]; sc, 20 mg/kg): -1.4 °C
- Aggressive Mouse ED 50 ([5]; sc, 30 min): 4.0 mg/kg
- Analgesic potency/activity (in words) [1]: more potent analgesics than (±)-3r-dimethylamino-4c-phenyl-4t-ethoxycarbonyl-cyclohexene-(1) (Valoron ^R), a positional isomer of the former and Dolantin ^R
- Analgesia ED 50 Phenyl-p-Quinone Writhing Test ([1]; po): 13.6 mg/kg
- Analgesia ED 50 Phenyl-p-Quinone Writhing Test ([1]; sc): 3.0 mg/kg
- Reduction of Spontaneous Motility by % Photocage ([2]; sc, 5 mg/kg): 38%
- Reduction of Spontaneous Motility by % Photocage ([2]; sc, 10 mg/kg): 82%
- LD50 at 48 h ([3]; po): 297 mg/kg
- LD50 at 48 h ([3]; sc): 155 mg/kg
